Values quoted from earlier work in US20090022706A1, “SUBSTITUTED CYCLOHEXENES” (Auspex Pharmaceuticals, Inc., priority 2007, published 2009).

Assays:
[1] = tested on: nitric oxide (NO) production
[2] = tested on: Toll-Like Receptor 4 (TLR4)-mediated cytokine production; details: under pro-inflammatory conditions

- production of various cytokines, such as IL-1β, IL-6, IL-12, and TNF-α [2]: inhibits
SMILES: CCOC(=O)C1=CCCC[C@H]1S(=O)(=O)Nc1ccc(F)cc1Cl [TAK-242, (R)-6-(2-chloro-4-fluoro-phenylsulfamoyl)-cyclohex-1-enecarboxylic acid ethyl ester]
- in vitro production of nitric oxide (NO) [1]: inhibits
